“Also recorded” adds a separate entry of the source. Like-named read-outs stand apart in the source and are kept apart here.
Assays:
[1] = API-API compatibility study (impurities by HPLC); assay type: physicochemical
Method: (§1) The latter reflects the proportions of APIs in each commercialized tablet. The prepared samples were stored in a stability chamber for 4 weeks at room temperature of 25 ± 2 °C/ 60 ± 5% RH and under acceleration conditions of 40 ± 2 °C/ 75 ± 5% RH, respectively. […] If none were detected, an additional impurity test was performed to confirm compatibility.

[2] = cited from earlier work
[3] = Rabeprazole sodium/excipient compatibility study (appearance, impurities by HPLC); assay type: physicochemical; conditions: 1:1 (w/w) mixtures, HPLC impurity test; threshold 3.5%
Method: as §1

[4] = Stability of APIs in solution at various pH (content, appearance); assay type: physicochemical
[5] = cited from earlier work; remark: listed apart in the source
physchem = conditions: water, thermodynamic from solid
Method: The solubility of each component in deionized water, solvents (ethanol, methanol), citric acid/sodium citrate buffer, and pH buffer was evaluated.
Each vial contained 10 mg rabeprazole sodium, and 200 µL of each solvent was slowly added. […] The solutions were filtered and then diluted 2000× to measure the quantity of rabeprazole sodium dissolved in the solution. Equilibrium or final rabeprazole sodium solubility was calculated from the HPLC peak. Peak area of sample solution × 100 × 100/Average of standard solution peak area ×1000

[6] = Method: The solution was then stirred at 37 ± 2 °C for 1 h and filtered by polyvinylidene fluoride (PVDF) membrane filter. Next, 50 mL of the filtrate was obtained and titrated with hydrochloric acid with 0.1 M sodium hydroxide solution (pH measurement method) with an endpoint of pH 3.5.

With COCCCOc1ccnc(C[S+]([O-])c2nc3ccccc3[nH]2)c1C (stereo not drawn) [Rabeprazole sodium] the “Impurities, 4 Weeks” value ([1]; Accelerated Condition 40 °C/75% RH) was 1.31%, the “Impurities, 4 Weeks” value ([1]; Room Temperature 25 °C/60% RH) was 0.07% and the “Impurities, Initial” value ([1]; initial) was 0.06%. For the same compound, the solubility ([2]; Water) was 10 mg/mL (Water), the Decomposition half-life ([2]; aqueous solutions with pH < 3.0) was under 10 min and the “pKa (Strongest Acidic)” value [2] was 9.35. The “pKa (Strongest Basic)” value [2] was 4.24, the “Concentration of decomposition products” value [3] was “no decomposition products were formed” and the “Rabeprazole sodium content measured according to pH” value ([4]; pH 1.2 to 6.0) was 30 to 60%. The “Time stable in solution” value ([4]; pH 8.0) was ~ 26 h, the Appearance in buffers ([4]; range of pH 1.2–12.0) was “changed in buffers with pH < 7.0; also recorded: transparent in buffers with pH > 8.0” and the “Time to reach maximum plasma concentration” value ([5]; Adolescents, Tablets) was 3.3 to 4.1 h. For the same compound, the “Time to reach maximum plasma concentration” value ([5]; Adults, Capsule) was 1 to 6.5 h, the “Time to reach maximum plasma concentration” value ([5]; Adults, Tablets) was 2 to 5 h and the Bioavailability ([5]; Tablets) was about 52%. The “Half-life (dose dependent)” value ([5]; adolescents) was 33 to 60 min, the “Half-life (dose dependent)” value ([5]; adults) was 60 to 120 min and the Action onset time ([5]; in vivo) was at most 1 h. The Duration ([5]; in vivo) was 24 h, the “Excretion: urine” value ([5]; in vivo) was 90% and the Metabolism ([5]; in vivo) was “metabolized by CYP3A and 2C19 to inactive metabolites in the liver”. For the same compound, the Protein binding rate ([5]; in vivo) was 96.3%, the “Delay of absorption by food” value ([5]; oral, with food) was “up to 4 h or more” and the “Absorption: Oral” value ([5]; oral) was “well absorbed within 1 h”. For the same compound, the Half-life increase ([5]; patients with mild to moderate hepatic impairment) was 2–3 times and the solubility (physchem) was over 110 mg/mL.

For O=C([O-])O.[Na+] [Sodium bicarbonate], the “PKa (carbonic acid)” value ([2]; carbonic acid) is listed as 6.351, the PKa [2] is listed as 10.329 and the “Acid-neutralizing capacity (0.1 M HCl consumption)” value (from here on “Acid-neutralizing capacity”) ([6]; 200 mg sodium bicarbonate) is listed as 38 mL. For the same compound, the “Acid-neutralizing capacity” value ([6]; 300 mg sodium bicarbonate) was 42 mL, the “Acid-neutralizing capacity” value ([6]; 400 mg sodium bicarbonate) was 45 mL and the “Acid-neutralizing capacity” value ([6]; 500 mg sodium bicarbonate) was 49 mL. The “Acid-neutralizing capacity” value ([6]; 600 mg sodium bicarbonate) was 57 mL, the “Acid-neutralizing capacity” value ([6]; 700 mg sodium bicarbonate) was 68 mL and the “Acid-neutralizing capacity” value ([6]; 800 mg sodium bicarbonate) was 79 mL. For the same compound, the “Acid-neutralizing capacity” value ([6]; 900 mg sodium bicarbonate) was 84 mL, the “Acid-neutralizing capacity” value ([6]; 1000 mg sodium bicarbonate) was 89 mL and the Duration ([5]; Intravenous (IV)) was 0.13 to 0.167 h. The “Onset time of action” value ([5]; Intravenous (IV)) was “fast”, the “Excretion: urine” value ([5]; in vivo) was under 1% and the Duration ([5]; oral) was 1 to 3 h. The “Onset time of action” value ([5]; oral) was 15 min.
